Experimental data published in PubChem BioAssay (NCI).
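Five concentrations, 48 hours, 96-well plates. Here, GI50 denotes the concentration required for 50% inhibition of growth. TGI: total growth inhibition.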

How the values were obtained:
Assay in all cases: growth of human tumour cells (NCI), 48 h
SK-MEL-2 melanoma = tested on: SK-MEL-2 melanoma
SF-268 CNS = tested on: SF-268 CNS
SNB-75 CNS = tested on: SNB-75 CNS
KM12 colon = tested on: KM12 colon
HCT-116 colon = tested on: HCT-116 colon
HCC-2998 colon = tested on: HCC-2998 colon
NCI-H522 lung = tested on: NCI-H522 lung
HL-60(TB) leukemia = tested on: HL-60(TB) leukemia
TK-10 renal = tested on: TK-10 renal
MDA-MB-435 = tested on: MDA-MB-435
NCI/ADR-RES ovarian = tested on: NCI/ADR-RES ovarian
SNB-19 CNS = tested on: SNB-19 CNS
MDA-MB-231 breast = tested on: MDA-MB-231 breast
HOP-92 NSCLC = tested on: HOP-92 NSCLC
COLO 205 colon = tested on: COLO 205 colon
SK-MEL-28 melanoma = tested on: SK-MEL-28 melanoma
CCRF-CEM leukemia = tested on: CCRF-CEM leukemia
UO-31 renal = tested on: UO-31 renal
T-47D breast = tested on: T-47D breast
HCT-15 colon = tested on: HCT-15 colon
OVCAR-8 ovarian = tested on: OVCAR-8 ovarian
K-562 leukemia = tested on: K-562 leukemia
NCI-H460 lung = tested on: NCI-H460 lung
A498 renal = tested on: A498 renal
U251 CNS = tested on: U251 CNS
SN12C renal = tested on: SN12C renal
SF-295 CNS = tested on: SF-295 CNS
IGROV1 ovarian = tested on: IGROV1 ovarian
MDA-MB-468 breast = tested on: MDA-MB-468 breast
SR leukemia = tested on: SR leukemia

CN1CCN(Cc2ccc(C(=O)Nc3cccc(C#Cc4cccc5[nH]nc(N)c45)c3)cc2C(F)(F)F)CC1
GI50 (SK-MEL-2 melanoma): 1530 nM | TGI (SK-MEL-2 melanoma): 3030 nM | GI50 (SF-268 CNS): 1070 nM | TGI (SF-268 CNS): 2420 nM | GI50 (SNB-75 CNS): 1450 nM | TGI (SNB-75 CNS): 3690 nM | GI50 (KM12 colon): 1410 nM | TGI (KM12 colon): 2930 nM | GI50 (HCT-116 colon): 420 nM | TGI (HCT-116 colon): 1620 nM | GI50 (HCC-2998 colon): 880 nM | TGI (HCC-2998 colon): 2190 nM | GI50 (NCI-H522 lung): 752 nM | TGI (NCI-H522 lung): 2160 nM | GI50 (HL-60(TB) leukemia): 278 nM | TGI (HL-60(TB) leukemia): 1600 nM | GI50 (TK-10 renal): 1750 nM | TGI (TK-10 renal): 3170 nM | GI50 (MDA-MB-435): 1090 nM | TGI (MDA-MB-435): 2450 nM | GI50 (NCI/ADR-RES ovarian): 1480 nM | TGI (NCI/ADR-RES ovarian): 3320 nM | GI50 (SNB-19 CNS): 1840 nM | TGI (SNB-19 CNS): 3250 nM | GI50 (MDA-MB-231 breast): 401 nM | TGI (MDA-MB-231 breast): 1730 nM | GI50 (HOP-92 NSCLC): 285 nM | TGI (HOP-92 NSCLC): 1400 nM | GI50 (COLO 205 colon): 862 nM | TGI (COLO 205 colon): 2210 nM | GI50 (SK-MEL-28 melanoma): 1260 nM | TGI (SK-MEL-28 melanoma): 2530 nM | GI50 (CCRF-CEM leukemia): 1170 nM | TGI (CCRF-CEM leukemia): 3330 nM | GI50 (UO-31 renal): 854 nM | TGI (UO-31 renal): 2090 nM | GI50 (T-47D breast): 1560 nM | TGI (T-47D breast): 3270 nM | GI50 (HCT-15 colon): 648 nM | TGI (HCT-15 colon): 1780 nM | GI50 (OVCAR-8 ovarian): 1160 nM | TGI (OVCAR-8 ovarian): 2380 nM | TGI (K-562 leukemia): 1020 nM | GI50 (NCI-H460 lung): 982 nM | TGI (NCI-H460 lung): 2530 nM | GI50 (A498 renal): 2380 nM | TGI (A498 renal): 3950 nM | GI50 (U251 CNS): 1220 nM | TGI (U251 CNS): 2470 nM | GI50 (SN12C renal): 739 nM | TGI (SN12C renal): 2140 nM | GI50 (SF-295 CNS): 1330 nM | TGI (SF-295 CNS): 2630 nM | GI50 (IGROV1 ovarian): 387 nM | TGI (IGROV1 ovarian): 1440 nM | GI50 (MDA-MB-468 breast): 760 nM | TGI (MDA-MB-468 breast): 2080 nM | GI50 (SR leukemia): 1100 nM
